Assay results from ChEMBL document CHEMBL3102801, “Synthesis and antiproliferative activity of new derivatives containing the polycyclic system 5,7:7,13-dimethanopyrazolo[3,4-b]pyrazolo[3',4':2,3]azepino[4,5-f]azocine” (Eur J Med Chem, 2014).
Active and inactive are the calls of the source. No cut-off for these calls is given here.

Assays:
KM12 = test: Growth inhibition of human KM12 cells after 48 hrs by sulforhodamine B assay; type: functional; conditions: KM12, 48 h
RPMI-8226 = test: Growth inhibition of human RPMI8226 cells after 48 hrs by sulforhodamine B assay; type: functional; conditions: RPMI-8226, 48 h
ACHN = test: Growth inhibition of human ACHN cells after 48 hrs by sulforhodamine B assay; type: functional
[1] = molecular target: T1, Retinoblastoma-associated protein (Homo sapiens) (UniProt P06400); test: Inhibition of pRb p110 phosphorylation in human HCT116 cells at 5 to 10 uM after 48 hrs by Western blotting relative to unphosphorylated p105; type: cell-based; conditions: HCT-116
T1 sequence (whole entry): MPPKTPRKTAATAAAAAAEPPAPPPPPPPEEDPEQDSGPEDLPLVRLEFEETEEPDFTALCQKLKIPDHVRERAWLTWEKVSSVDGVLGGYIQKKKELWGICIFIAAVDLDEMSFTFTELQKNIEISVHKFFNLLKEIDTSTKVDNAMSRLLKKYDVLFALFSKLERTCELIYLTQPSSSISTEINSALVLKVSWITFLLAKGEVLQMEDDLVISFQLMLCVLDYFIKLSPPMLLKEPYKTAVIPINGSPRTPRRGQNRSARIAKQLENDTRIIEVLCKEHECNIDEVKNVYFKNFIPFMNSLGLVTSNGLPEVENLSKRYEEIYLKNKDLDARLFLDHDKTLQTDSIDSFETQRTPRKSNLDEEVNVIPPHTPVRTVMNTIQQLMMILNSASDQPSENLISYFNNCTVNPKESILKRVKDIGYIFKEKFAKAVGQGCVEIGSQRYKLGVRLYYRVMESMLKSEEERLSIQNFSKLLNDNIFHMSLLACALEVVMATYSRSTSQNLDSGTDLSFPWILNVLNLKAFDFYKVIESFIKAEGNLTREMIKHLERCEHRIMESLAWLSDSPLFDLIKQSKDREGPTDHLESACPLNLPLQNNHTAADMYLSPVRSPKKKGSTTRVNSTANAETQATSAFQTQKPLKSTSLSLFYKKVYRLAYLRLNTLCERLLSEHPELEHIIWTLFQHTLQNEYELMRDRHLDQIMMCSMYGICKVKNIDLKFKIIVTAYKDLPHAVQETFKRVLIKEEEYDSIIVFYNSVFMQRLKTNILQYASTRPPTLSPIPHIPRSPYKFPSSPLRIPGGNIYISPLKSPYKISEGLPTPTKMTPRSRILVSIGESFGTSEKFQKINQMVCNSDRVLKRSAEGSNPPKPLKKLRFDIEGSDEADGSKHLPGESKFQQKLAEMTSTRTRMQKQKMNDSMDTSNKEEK

NCI-H226 = test: Growth inhibition of human NCI-H226 cells after 48 hrs by sulforhodamine B assay; type: functional; conditions: NCI-H226, 48 h
MDA-MB-231 = test: Cell cycle arrest in human MDA-MB-231 cells assessed as accumulation of G2-M phase at 10 uM after 48 hrs using propidium iodide staining by flow cytometric analysis (reference value: 27.5%); type: functional
[2] = molecular target: T1, Retinoblastoma-associated protein (Homo sapiens); test: Inhibition of pRb p110 phosphorylation in human HCT116 cells after 48 hrs by Western blotting; type: cell-based; conditions: HCT-116
TK-10 = test: Growth inhibition of human TK10 cells after 48 hrs by sulforhodamine B assay; type: functional; conditions: TK-10, 48 h

`C=C1c2c(C)nn(-c3ccc(OC)cc3)c2N(C)C23CC1C1(C)c4c(C)nn(-c5ccc(OC)cc5)c4N(C)C(C)(CC12)C3` (stereo not drawn) showed a GI50 (KM12) of 3.75 µM, a GI50 (RPMI-8226) of 1.87 µM and a GI50 (ACHN) of 3.3 µM. The inhibition [1] was “Active”, the GI50 (NCI-H226) was 4.44 µM and the Activity (MDA-MB-231) was 17.8%. The inhibition [2] was “Dose-dependent effect” and the GI50 (TK-10) was 3.63 µM.
